Experimental data as given in patent publication US11358953B2, “Functionalized peptides as antiviral agents” (ENANTA PHARMACEUTICALS, INC., priority 2020, dated 2022).

The compounds below were run against SARS-CoV-2 3CL-protease (Severe acute respiratory syndrome coronavirus 2 (2019-nCoV) (SARS-CoV-2), UniProt P0DTD1) (assay: SARS-CoV-2 3C-like (3CL) protease fluorescence assay (FRET)). Settings: recombinant SARS-CoV-2 3CL-protease 10 nM, 30 min preincubation at RT, substrate 40 μM, duplicate.
Assay type: biochemical

| Structure (SMILES) | IC50 |
| --- | --- |
| COc1cccc2[nH]c(C(=O)N3C[C@@H]4CCC[C@@H]4[C@H]3C(=O)N[C@@H](C[C@@H]3CCNC3=O)C(=O)CCl)cc12 [Ex1, (1S,3aR,6aS)—N—((S)-4-chloro-3-oxo-1-((S)-2-oxopyrrolidin-3-yl)butan-2-yl)-2-(4-methoxy-1H-indole-2-carbonyl)octahydrocyclopenta[c]pyrrole-1-carboxamide] | 100 to 1000 nM |
| CC(C)(C)[C@H](NC(=O)Cc1ccccc1)C(=O)N1C[C@H]2[C@@H]([C@H]1C(=O)N[C@H](C#N)C[C@@H]1CCNC1=O)C2(C)C [Ex24, (1R,2S,5S)—N—((S)-1-cyano-2-((S)-2-oxopyrrolidin-3-yl)ethyl)-3-((S)-3,3-dimethyl-2-(2-phenylacetamido)butanoyl)-6,6-dimethyl-3-azabicyclo[3.1.0]hexane-2-carboxamide] | < 100 nM |
| COc1cccc2[nH]c(C(=O)N3C[C@@H]4CCC[C@@H]4[C@H]3C(=O)N[C@@H](C[C@@H]3CCNC3=O)C(=O)C(=O)NC3CCCCC3)cc12 [Ex9, (1S,3aR,6aS)—N—((S)-4-(cyclohexylamino)-3,4-dioxo-1-((S)-2-oxopyrrolidin-3-yl)butan-2-yl)-2-(4-methoxy-1H-indole-2-carbonyl)octahydrocyclopenta[c]pyrrole-1-carboxamide] | < 100 nM |
